One series has as its target T1, rLac-HhC125 (Halalkalibacterium halodurans, UniProt Q9KB49).
T1 construct: gene BH2082
In words: biochemical. As to conditions: read-out: Residual activity (%) ± SD (0 min).

Substrate in the series “purified protein”: COc1cc(C=NN=Cc2cc(OC)c(O)c(OC)c2)cc(OC)c1O
In words: purified protein. The format is biochemical, Halalkalibacterium halodurans. The note with it: 100 mM Tris-HCl pH 8, 2 mM CuSO4, enzyme pre-treated 50 °C 20 min, partially purified enzyme.

Broadly, the Km is the substrate concentration at which the rate is half of its maximum.

In the case of `NC(=S)Nc1ccccc1` [Phenylthiourea], the remaining activity at 1000 µM at rLac-HhC125 was 3.9 ± 3.8%.

B1: rLac-HhC125 (Halalkalibacterium halodurans C-125) (protein)
chain: DDHSEMDHGNNQQDEQNEGTFEDGKKVFNLEVTETHWMFNDEVMMDAWTYNGTLPGQEIRVQEGDEVVINVKNSLNVPTALHLHGFPVPNEMDGVPGVTQNAIMPGEEFTYEYQANVPGTYWYHSHQDGATQVDRGLYGVFIVEPVDPESYDTDVAIVIDEFASMGMGMGMDHSTMDHGDMEHDGNDDMSHSEMMNEMYDTMVINGKADPQIESINVVEGNRVKLRFVNAGLFTQVVSIPEHSFKITHYDGQPVNEPDVLQDTAFRIAPAERYDLEIIMDNPGAWGIQVFAEENQERLQALIPLVYEEYEDEELQTVDSISSFFDLTTYGIPKELDIGDITKEYDMLLGSDDGGDTFTINGKKFPNHEIYDVEEGDMVKFTIINDTDFDHPMHLHGDFFHVISKGGKAIQGSPVLKDTLNVRPGETYEIVFEAKNPGNWMFHCHEFHHASGGMVAEIHYEGFELPFTPDPNIPNMPE
notes: native signal peptide removed (forward primer encodes MDDHSEMD...), pET28-a(+) BamHI/HindIII, E. coli BL21(DE3); partially purified by SEC; theoretical monomer 54 kDa; monomer and possibly dimer
Take B1: the Km in the series “purified protein” amounted to 2.48 µM.

The values above are taken from publication PMC11550293, “Biochemical characterization of a recombinant laccase from Halalkalibacterium halodurans C-125 and its application in the biotransformation of organic compounds” (Biotechnology Letters, 2024).
